Data: the NIST ThermoML archive (doi:10.1016/j.fluid.2015.03.053)
Numbers after ± are expanded uncertainties.

Legend:
[1] = Crystal; DTA
[2] = Molar enthalpy of transition or fusion; settings: Crystal; DSC

SMILES: CC1=CC(=O)C(C(C)C)=CC1=O [2-isopropyl-5-methylcyclohexa-2,5-diene-1,4-dione]
- Normal melting temperature [1]: 43.6 ± 0.5 °C

SMILES: O=c1cc(O)c2ccccc2o1 [4-hydroxycoumarin]
- Normal melting temperature [1]: 215.2 ± 0.39 °C

SMILES: CC(=O)N[C@@H](CS)C(=O)O [N-acetyl-L-cysteine]
- Molar enthalpy of transition or fusion [2]: 7.67 ± 0.167 kcal/mol

SMILES: CC(C)Cc1ccc(C(C)C(=O)O)cc1 (stereo not given) [ibuprofen]
- Normal melting temperature [1]: 74.6 ± 0.39 °C

SMILES: NNC(=O)c1ccncc1 [isonicotinic acid hydrazide]
- Normal melting temperature [1]: 172.69 ± 1.1 °C
